In test [1] the test system is ischemic stroke mice (MCAO). The test can be described thus: Measurement of the cerebral infarction volume (TTC staining). The format is in vivo, mouse. An excerpt: Laboratory mice are divided into four groups: “Control” consisting of mice processed through MCAO for the ischemic stroke; “Water” consisting of mice which are processed for the ischemic stroke through MCAO and whose limbs are soaked in water; “MCAO+8% ME” consisting of mice which are processed for the ischemic stroke through MCAO and whose limbs are soaked in 8% menthol; “MCAO+16% ME” consisting of mice which are processed for the ischemic stroke through MCAO and whose limbs are soaked in 16% menthol. In Embodiment 2, menthol is prepared with 95% ethanol. Referring to the experiment schedule in FIG. 2A, mice are sacrificed on Day 7 for following analyses. Mice are processed for the ischemic stroke through MCAO on Day 0 and administrated with menthol once per day from Day 0 to Day 6. On the day of processing mice through MCAO, the limbs of a mouse resting 20 minutes after the operation are soaked in menthol for one minute; a mouse's limbs are soaked in menthol for 15 seconds only from Day 2 to Day 6; comparatively, a Water mouse's limbs are soaked in water. The sensorimotor nerve function test is conducted for mice one day before MCAO processing (i.e., pre-MCAO) and 1, 3 and 6 days after MCAO processing; the cerebral infarction volume is measured for checking any improvement in the stroke due to menthol on Day 7 after MCAO processing. After a mouse in each group is sacrificed through perfusion one week after MCAO processing, a specimen of the mouse's living brain is stained by TTC (FIG. 2D-2) for measurement of the cerebral infarction volume (mm^3) (FIG. 2D-1). The test results for the cerebral infarction volume are analyzed with the one-way ANOVA for further reviews through the multiple comparison analysis (Tukey's method) and statistics of between-group variances (*p<0.05). […] Laboratory mice are divided into five groups: “Water” consisting of mice which are processed for the ischemic stroke through MCAO and whose limbs are soaked in water; “8% ME” consisting of mice which are processed for the ischemic stroke through MCAO and whose limbs are soaked in 8% menthol; “16% ME” consisting of mice which are processed for the ischemic stroke through MCAO and whose limbs are soaked in 16% menthol; “Back-ME” consisting of mice which are processed for the ischemic stroke through MCAO and whose backs are soaked in menthol; “Oral-ME” consisting of mice which are processed for the ischemic stroke through MCAO and fed with menthol. […] As shown in FIGS. 4B-1 and 4B-2, the test results are analyzed with the one-way ANOVA for further reviews through the multiple comparison analysis (Duncan's method) and statistics of between-group variances (*p<0.05; *: comparison with the “Water” group; comparison with the “16% ME” group; comparison with the “8% ME” group). […]

In test [2] the test system is Parkinson's disease mice (MPTP). Put plainly: Rotarod test (endurance exercise test), Parkinson's disease mouse model. In kind it is in vivo. The settings on record: forepaws soaked in 8% (wt %) menthol solution 10 seconds per day. An excerpt: Laboratory mice are divided into three groups: “Control” consisting of normal mice; “MPTP” consisting of Parkinson's disease mice fed with MPTP for creation of a disease model; “MPTP+8% ME” consisting of Parkinson's disease mice which are fed with MPTP for creation of a disease model and whose forepaws are soaked in 8% menthol. For administration of menthol, two forepaws of each “MPTP+8% ME” mouse are soaked in 8% (wt %) menthol solution for 10 seconds per day from Day 1 to Day 5 and from Day 8 to Day 10, respectively. For creation of a Parkinson's disease mouse model, MPTP (daily dosage: 10 mg/kg) is injected into “MPTP” and “MPTP+8% ME” mice through the intraperitoneal (I.P.) injection on three consecutive days from Day 3 to Day 5. By Day 10, the endurance exercise test, the dopamine assay and the immunohistochemical staining are conducted for any improvement in the symptom of Parkinson's disease due to menthol. The rotarod test is a performance test in which a rodent keeps running on a self-accelerated rotating rod activated from 4 rpm (initial rotation rate) to 40 rpm (maximum and constant rotation rate in five minutes) on Day 1 (Day 10) for estimation of the retention time of the rodent on the rotating rod (FIG. 1B). As shown in the ordinate of FIG. 1B, “A latency to fall” denotes the difference between the retention time on Day 10 and the retention time on Day 1.

The test system of test [3] is ischemic stroke mice (MCAO). Put plainly: Rotarod test, ischemic stroke mouse model. In kind it is in vivo. An excerpt:
Laboratory mice are divided into four groups: “Control” consisting of mice processed through MCAO for the ischemic stroke; “Water” consisting of mice which are processed for the ischemic stroke through MCAO and whose limbs are soaked in water; “MCAO+8% ME” consisting of mice which are processed for the ischemic stroke through MCAO and whose limbs are soaked in 8% menthol; “MCAO+16% ME” consisting of mice which are processed for the ischemic stroke through MCAO and whose limbs are soaked in 16% menthol. In Embodiment 2, menthol is prepared with 95% ethanol. Referring to the experiment schedule in FIG. 2A, mice are sacrificed on Day 7 for following analyses. Mice are processed for the ischemic stroke through MCAO on Day 0 and administrated with menthol once per day from Day 0 to Day 6. On the day of processing mice through MCAO, the limbs of a mouse resting 20 minutes after the operation are soaked in menthol for one minute; a mouse's limbs are soaked in menthol for 15 seconds only from Day 2 to Day 6; comparatively, a Water mouse's limbs are soaked in water. The sensorimotor nerve function test is conducted for mice one day before MCAO processing (i.e., pre-MCAO) and 1, 3 and 6 days after MCAO processing; the cerebral infarction volume is measured for checking any improvement in the stroke due to menthol on Day 7 after MCAO processing. In the rotarod test, a mouse is placed on a self-accelerated rotating rod (rotation rate from 4 to 40 rpm) on Day 3 and Day 6 for measuring the retention time (FIG. 2B-1 and FIG. 2B-2) and comparing test results with those of “pre-MCAO”. Mice in each group are tested three times. The test results are analyzed with the one-way ANOVA for further reviews through the multiple comparison analysis (Dunnett's method) and statistics of between-group variances (*p<0.05). The asterisk (*) means a significant difference between “Control” and “Water” or “MCAO+8% ME” (*p<0.05; **p<0.01). […] As shown in FIGS. 4B-1 and 4B-2, the test results are analyzed with the one-way ANOVA for further reviews through the multiple comparison analysis (Duncan's method) and statistics of between-group variances (*p<0.05; *: comparison with the “Water” group; comparison with the “16% ME” group; comparison with the “8% ME” group). […]

In test [4] the test system is Parkinson's disease mice (MPTP). Put plainly: Immunohistochemical (IHC) staining of TH in substantia nigra. The format is in vivo, mouse. Conditions: forepaws soaked in 8% menthol. An excerpt: Laboratory mice are divided into three groups: “Control” consisting of normal mice; “MPTP” consisting of Parkinson's disease mice fed with MPTP for creation of a disease model; “MPTP+8% ME” consisting of Parkinson's disease mice which are fed with MPTP for creation of a disease model and whose forepaws are soaked in 8% menthol. For administration of menthol, two forepaws of each “MPTP+8% ME” mouse are soaked in 8% (wt %) menthol solution for 10 seconds per day from Day 1 to Day 5 and from Day 8 to Day 10, respectively. For creation of a Parkinson's disease mouse model, MPTP (daily dosage: 10 mg/kg) is injected into “MPTP” and “MPTP+8% ME” mice through the intraperitoneal (I.P.) injection on three consecutive days from Day 3 to Day 5. By Day 10, the endurance exercise test, the dopamine assay and the immunohistochemical staining are conducted for any improvement in the symptom of Parkinson's disease due to menthol. The level of TH in a mouse's substantia nigra is tested through IHC staining (FIG. 1D). […] A mouse's nerve cells containing TH for generation of dopamine could be damaged due to Parkinson's disease.

The subject of test [5] is ischemic stroke mice (MCAO). Put plainly: Adhesive removal test, ischemic stroke mouse model. In kind it is in vivo. An excerpt: Laboratory mice are divided into four groups: “Control” consisting of mice processed through MCAO for the ischemic stroke; “Water” consisting of mice which are processed for the ischemic stroke through MCAO and whose limbs are soaked in water; “MCAO+8% ME” consisting of mice which are processed for the ischemic stroke through MCAO and whose limbs are soaked in 8% menthol; “MCAO+16% ME” consisting of mice which are processed for the ischemic stroke through MCAO and whose limbs are soaked in 16% menthol. In Embodiment 2, menthol is prepared with 95% ethanol. Referring to the experiment schedule in FIG. 2A, mice are sacrificed on Day 7 for following analyses. Mice are processed for the ischemic stroke through MCAO on Day 0 and administrated with menthol once per day from Day 0 to Day 6. On the day of processing mice through MCAO, the limbs of a mouse resting 20 minutes after the operation are soaked in menthol for one minute; a mouse's limbs are soaked in menthol for 15 seconds only from Day 2 to Day 6; comparatively, a Water mouse's limbs are soaked in water. The sensorimotor nerve function test is conducted for mice one day before MCAO processing (i.e., pre-MCAO) and 1, 3 and 6 days after MCAO processing; the cerebral infarction volume is measured for checking any improvement in the stroke due to menthol on Day 7 after MCAO processing. The adhesive removal test is conducted on Day 1, 3 and 6 and the test results are compared with status at “pre-MCAO”. As shown in the experimental process, the time of a mouse finding and removing 4 (mm)×4 (mm) stickers, which have been adhered to its forepaws outside a test cage, is recorded (FIG. 2C-1, FIG. 2C-2) for statistic analysis as described in Section 2.1 (*p<0.05; **p<0.01; ***p<0.001). […] As shown in FIGS. 4B-1 and 4B-2, the test results are analyzed with the one-way ANOVA for further reviews through the multiple comparison analysis (Duncan's method) and statistics of between-group variances (*p<0.05; *: comparison with the “Water” group; comparison with the “16% ME” group; comparison with the “8% ME” group). […]

[6] abbreviates: MCAO mice fed with oral menthol (Oral-ME).
Setting [7] is: MCAO mice, limbs soaked in menthol (8% ME, 16% ME), topical vs oral comparison.

Consider one compound from patent US20230133657A1, “THE USE OF MENTHOL FOR THE PREPARATION OF A TOPICAL COMPOSITION TO IMPROVE NEURODEGENERATIVE DISEASE AND STROKE” (CHINA MEDICAL UNIVERSITY, priority 2020, published 2023).

For `CC1CCC(C(C)C)C(O)C1` (stereo not shown) [menthol], the cerebral infarction volume result in test [1] (setting [6]) was “unchanged”; in test [1] (MCAO mice, backs administered with menthol (Back-ME)), “unchanged”; in test [1] (MCAO mice, limbs soaked in 8% or 16% menthol, Day 7, TTC staining, vs Control and Water groups), “significantly decreases”; in test [1] (setting [7]) it was “significantly subdued”. The “retention time on a rotating rod (latency to fall, Day 10 vs Day 1)” value in test [2] is given as “longer than the retention time on Day 1”. Moreover, the “retention time on a rotating rod” value in test [3] (setting [6]) is on record as “not extended effectively”; in test [3] (MCAO mice, backs administered with topical menthol (Back-ME)), “not extended effectively”; in test [3] (MCAO mice, limbs soaked in 8% or 16% menthol once per day Day 0 to Day 6, Day 3 and Day 6), “longer than the retention time performed by MCAO or Water mice”; in test [3] (setting [7]), “longer than the retention time performed by Back-ME, Water or Oral-ME mice”. The “level of TH in substantia nigra” value in test [4] is “recovered and similar to that of Control mice”. In test [5] (limbs soaked in 8% or 16% menthol, Day 1, 3 and 6), the “time spent in removing stickers” value is “significantly shorter than time spent by Control or Water mice”. In addition, the “time spent in finding stickers” value in test [5] (limbs soaked in 8% or 16% menthol, Day 6, vs Water mice) was “significantly less time”. In test [5] (limbs soaked in menthol (8% ME, 16% ME), vs Water, Back-ME, Oral-ME), the “time spent in finding and removing stickers” value is reported as “significantly shorter than other mice”.
